What was measured:
Leptosphaeria nodorum = Leptosphaeria nodorum test (wheat) / protective; assay type: in vivo; conditions: Parastagonospora nodorum, active compound concentration 500 ppm, evaluation 7-9 days after inoculation, read-out: efficacy
Experimental: Thereafter, the plants are placed in a greenhouse at 90% relative atmospheric humidity and a temperature of 22° C.

Pyrenophora teres = Pyrenophora teres test (barley) / protective; assay type: in vivo; conditions: 192 h, active compound concentration 500 ppm, evaluation 8 days after inoculation, read-out: efficacy
Experimental: After the spray coating has dried on, the plants are sprayed with a spore suspension of Pyrenophora teres. The plants remain in an incubation cabinet for 48 hours at 20° C. and 100% relative atmospheric humidity.

Pyricularia oryzae = test: whole plant or invertebrate; assay type: in vivo; conditions: 120 h, read-out: efficacy
Rhizoctonia solani = test: Rhizoctonia test (rice) / protective; assay type: in vivo; conditions: 96 h, active compound concentration 250 ppm, evaluation 4 days after inoculation, read-out: efficacy
[1] = logP by LC-MS on reversed-phase columns (C 18), method [b], acidic range pH 2.7; assay type: physicochemical; conditions: pH 2.7, log p
Experimental: (§1) The logP values were determined in accordance with EEC Directive 79/831 Annex V.A8 by HPLC (High Performance Liquid Chromatography) on reversed-phase columns (C 18), using the methods below:
[b] The LC-MS determination in the acidic range is carried out at pH 2.7 using the mobile phases 0.1% aqueous formic acid and acetonitrile (contains 0.1% formic acid), linear gradient from 10% acetonitrile to 95% acetonitrile.

Cochliobolus miyabeanus = test: Cochliobolus test (rice) / protective; conditions: Bipolaris oryzae, in Oryza sativa, 96 h, read-out: efficacy
Experimental: Cochliobolus Test (Rice)/Protective • Solvent: 28.5 parts by weight of acetone • Emulsifier: 1.5 parts by weight of alkylaryl polyglycol ether
1 day after the treatment, the plants are inoculated with an aqueous spore suspension of Cochliobolus miyabeanus. The plants are then placed in a greenhouse at 100% relative atmospheric humidity and 25° C.
Evaluation is carried out 4 days after the inoculation.

Venturia inaequalis = test: Venturia test (apple) / protective; assay type: in vivo; conditions: 240 h, active compound concentration 100 ppm, evaluation 10 days after inoculation, read-out: efficacy
Experimental: After the spray coating has dried on, the plants are inoculated with an aqueous conidia suspension of the apple scab pathogen Venturia inaequalis and then remain for 1 day in an incubation cabinet at about 20° C. and 100% relative atmospheric humidity.

Alternaria solani = test: Alternaria test (tomato) / protective; assay type: in vivo; conditions: 72 h, active compound concentration 100 ppm, evaluation 3 days after inoculation, read-out: efficacy
Experimental: The plants are then placed in an incubation cabinet at about 20° C. and 100% relative atmospheric humidity.

Sphaerotheca fuliginea = test: Sphaerotheca test (cucumber) / protective; assay type: in vivo; conditions: Podosphaera fuliginea, 168 h, active compound concentration 500 ppm, evaluation 7 days after inoculation, read-out: efficacy
Experimental: The plants are subsequently placed in a greenhouse at 70% relative atmospheric humidity and a temperature of 23° C.

[2] = logP by LC-MS on reversed-phase columns (C 18), method [c], neutral range pH 7.8; assay type: physicochemical; conditions: pH 7.8
Experimental: as §1
[c] The LC-MS determination in the neutral range is carried out at pH 7.8 using the mobile phases 0.001 molar aqueous ammonium bicarbonate solution and acetonitrile, linear gradient from 10% acetonitrile to 95% acetonitrile.

Row | Compound | pest or weed control at 500 ppm (Leptosphaeria nodorum) [%] | pest or weed control at 500 ppm (Pyrenophora teres) [%] | pest or weed control at 250 ppm (Pyricularia oryzae) [%] | pest or weed control at 250 ppm (Rhizoctonia solani) [%] | chromatographic logP [1] | pest or weed control at 250 ppm (Cochliobolus miyabeanus) [%] | pest or weed control at 100 ppm (Venturia inaequalis) [%] | pest or weed control at 100 ppm (Alternaria solani) [%] | pest or weed control at 500 ppm (Sphaerotheca fuliginea) [%] | chromatographic logP [2]
1 | CCCSc1cccc(Nc2ncc(Cl)c(NC3CCC3)n2)c1 [Example 5] | ≥ 70 | ≥ 70 | ≥ 80 | ≥ 80 | 3.66 | ≥ 80 | – | – | – | –
2 | COCc1cccc(Nc2ncc(Cl)c(NC3CCCC3)n2)c1 [Example 7] | ≥ 70 | – | – | ≥ 80 | 2.23 | ≥ 80 | – | – | – | –
3 | CSC(C)c1cccc(Nc2ncc(Br)c(NC3CCC3)n2)c1 (stereo not shown) [Example 13] | ≥ 70 | ≥ 70 | ≥ 80 | – | 3.07 | – | ≥ 70 | ≥ 70 | ≥ 70 | –
4 | CSC(C)c1cccc(Nc2ncc(Cl)c(NC3CCC3)n2)c1 (stereo not shown) [Example 14] | ≥ 70 | ≥ 70 | ≥ 80 | ≥ 80 | 2.82 | – | ≥ 70 | ≥ 70 | – | –
5 | COC(C)c1cccc(Nc2ncc(C(F)(F)F)c(NC3CCC3)n2)c1 (stereo not shown) [Example 19] | ≥ 70 | ≥ 70 | ≥ 80 | ≥ 80 | 3.69 | ≥ 80 | – | – | – | –
6 | COCCOc1cccc(Nc2ncc(Cl)c(NC3CCC3)n2)c1 [Example 66] | ≥ 70 | ≥ 70 | ≥ 80 | – | 2.12 | – | ≥ 70 | ≥ 70 | – | –
7 | COCc1cccc(Nc2ncc(Br)c(NC(C)C)n2)c1 [Example 70] | ≥ 70 | – | ≥ 80 | ≥ 80 | 1.92 | ≥ 80 | – | – | – | –
8 | COCCOc1cccc(Nc2ncc(C(F)(F)F)c(NC3CCC3)n2)c1 [Example 71] | ≥ 70 | – | ≥ 80 | ≥ 80 | 3.33 | ≥ 80 | – | – | – | –
9 | CCS(=O)(=O)C(C)c1cccc(Nc2ncc(Cl)c(NC3CC3)n2)c1 (stereo not shown) [Example 75] | ≥ 70 | ≥ 70 | ≥ 80 | – | 2.54 | ≥ 80 | – | – | ≥ 70 | –
10 | COCCOc1ccc(Nc2ncc(C(F)(F)F)c(NC3CC3)n2)cc1 [Example 82] | ≥ 70 | ≥ 70 | ≥ 80 | – | 2.3 | ≥ 80 | – | – | – | 3.06
11 | CCOCCOc1ccc(Nc2ncc(C(F)(F)F)c(NC3CC3)n2)cc1 [Example 91] | ≥ 70 | ≥ 70 | ≥ 80 | ≥ 80 | 3.26 | ≥ 80 | – | – | ≥ 70 | 3.64
12 | CCNc1nc(Nc2cccc(COC)c2)ncc1Cl [Example 95] | ≥ 70 | – | ≥ 80 | – | 1.47 | ≥ 80 | – | – | – | 2.84
13 | CCC[S+]([O-])c1cccc(Nc2ncc(Br)c(NC3CC3)n2)c1 (stereo not shown) [Example 102] | ≥ 70 | ≥ 70 | ≥ 80 | ≥ 80 | 1.04 | ≥ 80 | – | – | – | 2.5
14 | CCCS(=O)(=O)c1cccc(Nc2ncc(Cl)c(NC3CCC3)n2)c1 [Example 103] | ≥ 70 | – | – | ≥ 80 | 2.6 | ≥ 80 | – | – | – | 3.27
15 | CCCCSc1cccc(Nc2ncc(Br)c(NC3CC3)n2)c1 [Example 105] | ≥ 70 | – | ≥ 80 | ≥ 80 | 4 | ≥ 80 | – | – | – | 4.99
16 | CCCCSc1cccc(Nc2ncc(C(F)(F)F)c(NC3CC3)n2)c1 [Example 107] | ≥ 70 | – | ≥ 80 | ≥ 80 | 4.94 | ≥ 80 | – | – | – | –
17 | CCC1CC1Nc1nc(Nc2cccc(COC)c2)ncc1Cl (stereo not shown) [Example 108] | ≥ 70 | – | ≥ 80 | – | 2.46 | ≥ 80 | – | – | – | –
18 | CCCSc1cccc(Nc2ncc(C(F)(F)F)c(NC3CC3)n2)c1 [Example 109] | ≥ 70 | – | ≥ 80 | ≥ 80 | 4.44 | ≥ 80 | – | – | ≥ 70 | –
19 | CCS(=O)(=O)c1cccc(Nc2ncc(Cl)c(NC3CC3)n2)c1 [Example 113] | ≥ 70 | ≥ 70 | – | – | 1.87 | – | ≥ 70 | ≥ 70 | ≥ 70 | 2.48
20 | CCS(=O)(=O)c1cccc(Nc2ncc(C(F)(F)F)c(NC3CCC3)n2)c1 [Example 118] | ≥ 70 | ≥ 70 | – | – | 3.07 | – | ≥ 70 | ≥ 70 | ≥ 70 | 3.23
21 | CC[S+]([O-])c1cccc(Nc2ncc(C(F)(F)F)c(NC3CCC3)n2)c1 (stereo not shown) [Example 119] | ≥ 70 | ≥ 70 | – | – | 2.61 | – | ≥ 70 | ≥ 70 | ≥ 70 | 2.81
22 | CCCC[S+]([O-])c1cccc(Nc2ncc(Br)c(NC3CC3)n2)c1 (stereo not shown) [Example 126] | ≥ 70 | ≥ 70 | ≥ 80 | ≥ 80 | 2.28 | ≥ 80 | – | – | – | 2.86
23 | COCc1cccc(Nc2ncc(C(F)(F)F)c(NCC3CC3)n2)c1 [Example 127] | ≥ 70 | ≥ 70 | ≥ 80 | ≥ 80 | – | ≥ 80 | – | – | ≥ 70 | –
24 | CCC(C)SC(C)c1cccc(Nc2ncc(Cl)c(NC3CC3)n2)c1 (stereo not shown) [Example 133] | ≥ 70 | ≥ 70 | – | – | 3.79 | – | ≥ 70 | ≥ 70 | ≥ 70 | 5.08
25 | CCC(C)S(=O)(=O)C(C)c1cccc(Nc2ncc(Cl)c(NC3CC3)n2)c1 (stereo not shown) [Example 163] | ≥ 70 | ≥ 70 | – | – | 2.16 | – | ≥ 70 | ≥ 70 | ≥ 70 | 3.16
26 | CCC(C)[S+]([O-])C(C)c1cccc(Nc2ncc(Cl)c(NC3CC3)n2)c1 (stereo not shown) [Example 164] | ≥ 70 | ≥ 70 | – | – | 2 | – | ≥ 70 | ≥ 70 | ≥ 70 | 2.79
27 | COCCCSc1cccc(Nc2ncc(Cl)c(NC3CC3)n2)c1 [Example 201] | ≥ 70 | – | ≥ 80 | ≥ 80 | 2.59 | ≥ 80 | – | – | – | 3.77
28 | CCC[S+]([O-])c1cccc(Nc2ncc(Cl)c(NC3CC3)n2)c1 (stereo not shown) [Example 205] | ≥ 70 | ≥ 70 | – | – | 1.8 | – | ≥ 70 | ≥ 70 | ≥ 70 | 2.47
